Data published in US20080213249A1, “Use of Retro-Aldol Reaction to Generate Reactive Vinyl Ketone for Attachment to Antibody Molecules by Michael Addition Reaction for Use in Immunostaining and Immunotargeting” (THE SCRIPPS RESEARCH INSITUTE, priority 2006, published 2008).

Experiments:
[1] = system: HIV primary isolates and laboratory-adapted strains; conditions: cited from earlier work
antibody 38C2 = experiment: Inactivation of the catalytic (aldolase) activity of antibody 38C2, fluorescence assay with methadol as substrate; format: biochemical, mouse; conditions: preliminary studies, unpublished results
Description: To assess the potential of 2a, 3a, 2c, and 3c as programming agents, these compounds were separately mixed with antibody 38C2 at a ratio of 2:1, and the mixtures were incubated at 37° C. for 2 h. A fluorescence assay, based on using methadol as the substrate, was used to assess time-dependent inactivation of the catalytic activity of the antibody (14). Inactivation of aldolase activity should be indicative of modification of the catalytic lysine residue and, thus, chemical programming of the antibody. In the absence of the programming agents, 38C2 rapidly catalyzed the retro-aldol reaction of methadol to produce the fluorescent product 6-methoxy-2-naphthaldehyde. […] (The cpAb 38C2 using targeting agents 2a or 3a were named as 38C2-2b and 38C2-3b, respectively, based on the fact that compounds 2b and 3b were the expected ligands that conjugated with 38C2. Similarly, the analogous chemically programmed 38C2 Fab (or cp38C2Fab) construct obtained from 3a was named as 38C2Fab-3b.) These observations clearly supported the assumption that vinyl ketones, 2b and 3b, produced in situ from their acetone adducts, reacted with the active site of the antibody and also reinforced the previously described construct formation from the analogous diketone compounds 2c and 3c.

Structure (SMILES) | anti-HIV activity [1] | inactivation of the antibody (antibody 38C2)
C=C(C)[C@@H]1CC[C@]2(C(=O)NCCCCCCCC(=O)N[C@@H](CC(C)C)[C@H](O)CC(=O)O)CC[C@]3(C)[C@H](CC[C@@H]4[C@@]5(C)CC[C@H](O)C(C)(C)[C@@H]5CC[C@]43C)[C@@H]12 [IC9564] | can inhibit both HIV primary isolates and laboratory-adapted strains | 
C=CC(C)=O [methylvinyl ketone] |  | rapidly inactivated the antibody
